Experimental findings from US20200138827A1, “SMALL MOLECULE MODULATORS OF HUMAN STING” (Curadev Pharma Limited, priority 2017, published 2020) are described below.

In the assay the target is T1, WT/R232 STING protein (Homo sapiens, UniProt Q86WV6, H232R).
T1 construct: host or cells: HEK293T
Nature of the assay: Luciferase reporter assay in HEK293T-hSTING-Luciferase cells, WT/R232. It is filed as cell-based. To be noted: 20 hr stimulation, read-out: R232 Activity (EC50 range). In short, it runs like this:
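Clonal HEK293T cells stably expressing human STING R232 plus an ISRE/ISG54-driven luciferase reporter, 5×10^5 per well, stimulated with compounds for 20 h. Secreted luciferase in supernatant measured by luminescence; […].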
Background: In a reporter assay the amount or activity of a reporter protein is the signal.

T1 sequence (Q86WV6 whole entry H232R): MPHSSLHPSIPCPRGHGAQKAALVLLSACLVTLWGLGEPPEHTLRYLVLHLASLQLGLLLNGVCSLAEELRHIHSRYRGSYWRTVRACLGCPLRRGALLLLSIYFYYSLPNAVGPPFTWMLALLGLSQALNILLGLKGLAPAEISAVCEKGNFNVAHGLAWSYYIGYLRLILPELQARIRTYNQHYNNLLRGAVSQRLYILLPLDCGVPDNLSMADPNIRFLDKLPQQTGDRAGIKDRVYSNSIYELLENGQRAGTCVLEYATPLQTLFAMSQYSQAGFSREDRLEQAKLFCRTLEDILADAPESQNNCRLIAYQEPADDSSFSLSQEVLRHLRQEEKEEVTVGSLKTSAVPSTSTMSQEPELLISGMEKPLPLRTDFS

By EC50 is commonly meant the concentration giving half of the maximal effect. For the molecule `Cc1cnc(CNC(=O)c2ccc3c(c2)N(Cc2cnn(C)c2)C(=O)C(C)S3)o1` (stereo not drawn) [Example 173, 2-methyl-4-((1-methyl-1H-pyrazol-4-yl)methyl)-N-((5-methyloxazol-2-yl)methyl)-3-oxo-3,4-dihydro-2H-benzo[b][1,4] thiazine-6-carboxamide], the 50% effective concentration (EC50) is > 10 µM.

For the molecule `CC1Sc2ccc(C(=O)NCCc3c(F)cc(F)cc3F)nc2N(Cc2cc(F)cc(F)c2)C1=O` (stereo not drawn) [Example 174, 4-(3,5-difluorobenzyl)-2-methyl-3-oxo-N-(2,4,6-trifluoro-phenethyl)-3,4-dihydro-2H-pyrido[3,2-b][1,4]thiazine-6-carboxamide], the EC50 is > 10 µM.

As to `O=C(O)CC1Sc2ccc(C(=O)NCc3ccco3)cc2N(Cc2ccccc2F)C1=O` (stereo not drawn) [Example 175, 2-(4-(2-fluorobenzyl)-6-((furan-2-ylmethyl)carbamoyl)-3-oxo-3,4-dihydro-2H-benzo[b][1,4]thiazin-2-yl)acetic acid], the concentration for a half-maximal effect (EC50) is > 10 µM.

For the molecule `NC(=O)CC1Sc2ccc(C(=O)NCc3ccc(F)cc3F)cc2N(Cc2cc(F)cc(F)c2)C1=O` (stereo not drawn) [Example 176, 2-(2-amino-2-oxoethyl)-N-(2,4-difluorobenzyl)-4-(3,5-difluorobenzyl)-3-oxo-3,4-dihydro-2H-benzo[b] [1,4]thiazine-6-carboxamide], the 50% effective concentration (EC50) is > 10 µM.

As for `O=C(NCc1ccco1)c1cnc2c(c1)N(Cc1c(F)cccc1Cl)C(=O)CS2` [Example 177, 1-(2-Chloro-6-fluorobenzyl)-N-(furan-2-ylmethyl)-2-oxo-2,3-dihydro-1H-pyrido[2,3-b-1,4]thiazine-7-carboxamide], the concentration for a half-maximal effect (EC50) is > 10 µM.

On to `O=C(NCC1CCCCC1)c1cnc2c(c1)N(Cc1c(F)cccc1Cl)C(=O)CS2` [Example 179, 1-(2-chloro-6-fluorobenzyl)-N-(cyclohexyl-methyl)-2-oxo-2,3-dihydro-1H-pyrido[2,3-b-1,4]thiazine-7-carboxamide], for which the EC50 is > 10 µM.

With `O=C(NCc1ccco1)c1cnc2c(c1)N(Cc1ccccc1)C(=O)CS2` [Example 180, 1-benzyl-N-(furan-2-ylmethyl)-2-oxo-2,3-dihydro-1H-pyrido[2,3-b-1,4]thiazine-7-carboxamide], the half-maximal effective concentration (EC50) was > 10 µM.

Turning to `O=C(NCc1ccco1)c1cc2c(cn1)SCC(=O)N2Cc1c(F)cccc1Cl` [Example 182, 1-(2-chloro-6-fluorobenzyl)-N-(furan-2-ylmethyl)-2-oxo-2,3-dihydro-1H-pyrido[3,4-b-1,4]thiazine-7-carboxamide], the half-maximal effective concentration (EC50) is > 10 µM.

As to `Cc1cccc(CNC(=O)c2ccc3c(n2)N(Cc2c(F)cccc2Cl)C(=O)C(C)S3)c1` (stereo not drawn) [Example 184, 4-(2-chloro-6-fluorobenzyl)-2-methyl-N-(3-methylbenzyl)-3-oxo-3,4-dihydro-2H-pyrido[3,2-b-1,4]thiazine-6-carboxamide], the 50% effective concentration (EC50) was > 10 µM.

For the molecule `CC1Sc2ccc(C(=O)NCc3c(F)cc(F)cc3F)nc2N(Cc2cc(F)cc(F)c2)C1=O` (stereo not drawn) [Example 185, 4-(3,5-difluorobenzyl)-2-methyl-3-oxo-N-(2,4,6-trifluorobenzyl)-3,4-dihydro-2H-pyrido[3,2-b-1,4]thiazine-6-carboxamide], the EC50 is 1 to 10 µM.

On to `CC1Sc2ccc(C(=O)NCc3c(F)cc(F)cc3F)nc2N(Cc2c(F)cccc2Cl)C1=O` (stereo not drawn) [Example 186, 4-(2-chloro-6-fluorobenzyl)-2-methyl-3-oxo-N-(2,4,6-trifluorobenzyl)-3,4-dihydro-2H-pyrido[3,2-b-1,4]thiazine-6-carboxamide], for which the 50% effective concentration (EC50) is 1 to 10 µM.

Turning to `Cc1ccc(CNC(=O)c2ccc3c(n2)N(C(C)c2cc(F)cc(F)c2)C(=O)C(C)S3)o1` (stereo not drawn) [Example 204, 4-(1-(3,5-difluorophenyl)ethyl)-2-methyl-N-((5-methylfuran-2-yl)methyl)-3-oxo-3,4-dihydro-2H-pyrido[3,2-b] [1,4] thiazine-6-carboxamide], the EC50 lay within 1 to 10 µM.

In the case of `Cc1ccc(CNC(=O)c2ccc3c(n2)N(Cc2cccc(C(N)=O)c2)C(=O)C(C)S3)o1` (stereo not drawn) [Example 205, 4-(3-carbamoyl-benzyl)-2-methyl-N-((5-methylfuran-2-yl)methyl)-3-oxo-3,4-dihydro-2H-pyrido[3,2-b][1,4]thiazine-6-carboxamide], the EC50 is 1 to 10 µM.

With `COc1cc(CN2C(=O)C(C)Sc3ncc(C(=O)NCc4c(F)cc(F)cc4F)cc32)ccn1` (stereo not drawn) [Example 206, 1-((2-methoxypyridin-4-yl)methyl)-3-methyl-2-oxo-N-(2,4,6-trifluorobenzyl)-2,3-dihydro-1H-pyrido[2,3-b][1,4] thiazine-7-carboxamide], the 50% effective concentration (EC50) was in the range of 1 to 10 µM.

Take `Cc1ccc(CNC(=O)c2cnc3c(c2)N(Cc2c(F)cccc2Cl)C(=O)CS3)o1` [Example 207, 1-(2-chloro-6-fluorobenzyl)-N-((5-methylfuran-2-yl)methyl)-2-oxo-2,3-dihydro-1H-pyrido [2,3-b][1,4] thiazine-7-carboxamide]: the EC50 was in the range of 1 to 10 µM.

Turning to `CC1Sc2ncc(C(=O)NCc3cc4ccccc4o3)cc2N(Cc2cc(F)cc(F)c2)C1=O` (stereo not drawn) [Example 208, N-(benzofuran-2-ylmethyl)-1-(3,5-difluorobenzyl)-3-methyl-2-oxo-2,3-dihydro-1H-pyrido[2,3-b][1,4] thiazine-7-carboxamide], the concentration giving a half-maximal response (EC50) was > 10 µM.

As to `Cc1ccc(CNC(=O)c2cnc3c(c2)N(Cc2cc(F)cc(F)c2)C(=O)C(C)(CO)S3)o1` (stereo not drawn) [Example 209, 1-(3,5-difluorobenzyl)-3-(hydroxymethyl)-3-methyl-N-((5-methylfuran-2-yl)methyl)-2-oxo-2,3-dihydro-1H-pyrido [2,3-b] [1,4]thiazine-7-carboxamide], the EC50 was > 10 µM.

Regarding `CC1(CO)Sc2ncc(C(=O)NCc3cc4ccccc4o3)cc2N(Cc2cc(F)cc(F)c2)C1=O` (stereo not drawn) [Example 210, N-(benzofuran-2-ylmethyl)-1-(3,5-difluorobenzyl)-3-(hydroxymethyl)-3-methyl-2-oxo-2,3-dihydro-1H-pyrido[2,3-b] [1,4] thiazine-7-carboxamide], the concentration giving a half-maximal response (EC50) was > 10 µM.

For the molecule `CC1(CO)Sc2ncc(C(=O)NCc3c(F)cc(F)cc3F)cc2N(Cc2cc(F)cc(F)c2)C1=O` (stereo not drawn) [Example 211, 1-(3,5-difluorobenzyl)-3-(hydroxymethyl)-3-methyl-2-oxo-N-(2,4,6-trifluorobenzyl)-2,3-dihydro-1H-pyrido [2,3-b] [1,4]thiazine-7-carboxamide], the EC50 is > 10 µM.

In the case of `Cc1noc(CNC(=O)c2cnc3c(c2)N(Cc2cc(F)cc(F)c2)C(=O)C(C)S3)n1` (stereo not drawn) [Example 212, 1-(3,5-difluorobenzyl)-3-methyl-N-((3-methyl-1,2,4-oxadiazol-5-yl)methyl)-2-oxo-2,3-dihydro-1H-pyrido[2,3-b] [1,4] thiazine-7-carboxamide], the concentration giving a half-maximal response (EC50) is > 10 µM.

Turning to `Cc1cnc(CNC(=O)c2cnc3c(c2)N(Cc2cc(F)cc(F)c2)C(=O)C(C)S3)o1` (stereo not drawn) [Example 213, 1-(3,5-difluorobenzyl)-3-methyl-N-((5-methyloxazol-2-yl)methyl)-2-oxo-2,3-dihydro-1H-pyrido[2,3-b][1,4]thiazine-7-carboxamide], the EC50 was > 10 µM.

`CC1Sc2ncc(C(=O)NCc3cccnn3)cc2N(Cc2cc(F)cc(F)c2)C1=O` (stereo not drawn) [Example 214, 1-(3,5-difluorobenzyl)-3-methyl-2-oxo-N-(pyridazin-3-ylmethyl)-2,3-dihydro-1H-pyrido [2,3-b][1,4] thiazine-7-carboxamide]: the concentration for a half-maximal effect (EC50) is > 10 µM.

Regarding `CC1Sc2ncc(C(=O)NCc3ccn(C)n3)cc2N(Cc2cc(F)cc(F)c2)C1=O` (stereo not drawn) [Example 215, 1-(3,5-difluorobenzyl)-3-methyl-N-((1-methyl-1H-pyrazol-3-yl)methyl)-2-oxo-2,3-dihydro-1H-pyrido[2,3-b][1,4]thiazine-7-carboxamide], the EC50 is > 10 µM.

Regarding `CC1Sc2ncc(C(=O)NCc3cnn(C)c3)cc2N(Cc2cc(F)cc(F)c2)C1=O` (stereo not drawn) [Example 216, 1-(3,5-difluorobenzyl)-3-methyl-N-((1-methyl-1H-pyrazol-4-yl)methyl)-2-oxo-2,3-dihydro-1H-pyrido[2,3-b][1,4] thiazine-7-carboxamide], the EC50 was > 10 µM.

In the case of `CC1Sc2ncc(C(=O)NCc3cnccn3)cc2N(Cc2cc(F)cc(F)c2)C1=O` (stereo not drawn) [Example 217, 1-(3,5-difluorobenzyl)-3-methyl oxo-N-(pyrazin-2-ylmethyl)-2,3 dihydro-1H-pyrido[2,3-b][1,4]thiazine-7-carboxamide], the concentration for a half-maximal effect (EC50) was > 10 µM.

In the case of `N#Cc1cc(C(=O)NCc2ccco2)cc2c1SCC(=O)N2Cc1ccccc1` [Example 219, 4-Benzyl-8-cyano-N-(furan-2-ylmethyl)-3-oxo-3,4-dihydro-2H-benzo[b-1,4]thiazine-6-carboxamide], the EC50 is > 10 µM.

Turning to `N#Cc1cc(C(=O)NCc2ccco2)cc2c1SCC(=O)N2Cc1cc(F)cc(F)c1` [Example 220, 8-cyano-4-(3,5-difluorobenzyl)-N-(furan-2-ylmethyl)-3-oxo-3,4-dihydro-2H-benzo[b-1,4]thiazine-6-carboxamide], the half-maximal effective concentration (EC50) is > 10 µM.

As for `O=C(NCc1ccco1)c1cc(Br)c2c(c1)N(Cc1ccccc1F)C(=O)CS2` [Example 221, 8-bromo-4-(2-fluorobenzyl)-N-(furan-2-ylmethyl)-3-oxo-3,4-dihydro-2H-benzo[b-1,4]thiazine-6-carboxamide], the EC50 is > 10 µM.

On to `O=C(NCc1c(F)cc(F)cc1F)c1cc(CCO)c2c(c1)N(Cc1ccc(F)cc1)C(=O)CS2` [Example 222, 4-(4-fluorobenzyl)-8-(2-hydroxyethyl)-3-oxo-N-(2,4,6-trifluorobenzyl)-3,4-dihydro-2H-benzo[b][1,4] thiazine-6-carboxamide], for which the concentration giving a half-maximal response (EC50) is > 10 µM.

With `CC(O)c1cc(C(=O)NCc2c(F)cc(F)cc2F)cc2c1SCC(=O)N2Cc1ccc(F)cc1` (stereo not drawn) [Example 223, 4-(4-fluorobenzyl)-8-(1-hydroxyethyl)-3-oxo-N-(2,4,6-trifluorobenzyl)-3,4-dihydro-2H-benzo[b][1,4] thiazine-6-carboxamide], the EC50 was > 10 µM.
